Results on 2 compounds are retold here after patent US4921871A, “Enolamides, pharmaceutical compositions and methods of use thereof for treating inflammation” (Warner-Lambert Company, priority 1987, dated 1990).

The assay concerns the target T1, human leukocyte 5-lipoxygenase (Homo sapiens, UniProt P09917).
T1 construct: endogenous in cells; host or cells: leukocytes from fresh human blood
T1 sequence (P09917 1-674): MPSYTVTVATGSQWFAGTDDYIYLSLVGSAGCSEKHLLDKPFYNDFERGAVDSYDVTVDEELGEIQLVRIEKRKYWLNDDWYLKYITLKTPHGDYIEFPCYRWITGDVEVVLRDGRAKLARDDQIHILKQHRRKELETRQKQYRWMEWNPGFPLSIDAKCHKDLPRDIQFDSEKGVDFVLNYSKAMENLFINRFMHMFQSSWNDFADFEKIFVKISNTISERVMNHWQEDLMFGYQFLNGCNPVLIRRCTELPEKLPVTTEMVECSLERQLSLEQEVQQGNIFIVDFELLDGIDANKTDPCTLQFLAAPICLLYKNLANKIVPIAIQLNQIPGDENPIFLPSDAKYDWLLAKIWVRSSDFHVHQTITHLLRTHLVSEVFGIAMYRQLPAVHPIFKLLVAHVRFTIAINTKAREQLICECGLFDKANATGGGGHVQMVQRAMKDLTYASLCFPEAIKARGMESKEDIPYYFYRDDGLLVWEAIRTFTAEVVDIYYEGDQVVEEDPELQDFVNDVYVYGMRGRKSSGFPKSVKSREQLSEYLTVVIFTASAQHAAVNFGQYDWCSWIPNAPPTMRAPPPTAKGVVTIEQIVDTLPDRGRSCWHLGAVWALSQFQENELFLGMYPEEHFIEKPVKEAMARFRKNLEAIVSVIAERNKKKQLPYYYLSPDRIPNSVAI
Briefly: 5-Lipoxygenase assay in human leukocytes, formation of 5-HETE (5LOA; 5LOA1 or 5LOA2 not specified). Type of assay: cell-based. An excerpt:
To Evaluate the Effect of Each Compounds as a 5-Lipoxygenase Inhibitor in Comparison to Standard Reference Agents in Human Leukocytes (5LOAl)
The purpose of this assay is to evaluate the activity of each compound as an inhibitor of human leukocyte 5-lipoxygenase.
Arachidonic acid and calcium ionophore A23l87 are obtained from Sigma (St. Louis, Mo.). Silica gel plates, GF are obtained from Analtech (Newark, Del.). Arachidonic acid, (1-^14 C) and 5-HETE (^3 H), 5 (S)-hydroxy-6-trans, 8,11,14-cis eicosatetraenoic acid, are obtained from New England Nuclear (Boston, Mass.). Six percent Dextran-70 in 0.9% NaCl is obtained from Cutter Labs (Berkeley, Calif.).
Fresh blood from normal adult men who had not received any drugs for at least the previous five days is obtained by the Community Research Clinic (WL/PD) using venipuncture and collected into heparinized vacuotainer tubes. To every 100 ml of pooled blood is added 25 ml of dextran solution (6% dextran -70 in 0.9% sodium chloride containing 3% dextrose) and this is mixed gently in a plastic cylinder. The mixture is left to stand at room temperature for at least 90 minutes. The upper layer which is rich in leukocytes and platelets is then carefully decanted into 50 ml plastic tubes and centrifuged at about 100×g for eight minutes in an IEC centrifuge and rotor number 269 (about 600 rpm). The supernatant fluid is discarded and the pellet is resuspended in 10 ml of 0.87% ammonium chloride for exactly two minutes. This procedure is to lyse completely contaminating red blood cells. Leukocytes are then separated by centrifugation for ten minutes. The pellet is washed three times by suspension in 20 ml PBS (sodium chloride, 7.1 g; Na2 HPO4, 1.15 g; KH2 PO4, 0.2 g, and KCl, 0.2 g/L) and centrifuged as before. The final pellet is suspended in PBS containing 0.87 mM CaCl2. Viability of the cells is then checked using trypan blue exclusion method and is found to be over 90%.
Leukocyte cells in suspension (0.98 ml) are incubated with or without test compounds for five minutes at 37° C. in a shaking water bath. At this time a 17 μl mixture is prepared per 1 ml of cell suspension: 100 mM arachidonic acid, 1 μl, 0.05 μCi ^14 C-arachidonic acid in 5 .rho.l; 1 mM calcium ionophore A23187, 10 μl (1). This mixture is added and the incubation continued for five minutes. The reaction is stopped by adding four volumes of absolute ethanol and the mixture is kept in ice for 30 minutes. The floculated precipitate is separated by centrifugation at about 37,000×g for 20 minutes (Beckman Instruments rotor number 40). The alcohol extract is taken to dryness under a stream of nitrogen and the residue is dissolved in 100-200 μl absolute ethanol. At the time any turbidity is removed by centrifugation. An aliquot (25-50 μl) is applied onto 20×20 cm silica gel TLC plate and developed using the following solvent system: diethyl ether, petroleum ether (2040° C.), acetic acid (50:50: 1 v/v). Zones of 1 cm apart are scraped from the TLC plate and transferred to mini-vials. Methanol (0.5 ml) is added to dissolve the radioactivity adsorbed to the silica gel and scintillation fluid (H.P., Beckman), 5 ml is then added and vials are counted in a liquid scintillation counter. A sample of ^3 H-5-HETE is applied and used for the identification of the formed 5-HETE.
Total radioactivity in the test as well as the control samples are normalized and the amount of 5-HETE present is calculated accordingly.
IC50 values are defined as the concentrations of test agents which caused a 50% inhibition of the formation of 5-HETE as compared to control and are determined by inspection of the concentration-response curves.
The formation of 5-HETE in human leukocytes is considered a measure of 5-lipoxygenase activity. The protocol is described in the following.
Fresh heparinized or EDTA treated human blood is mixed with 6% dextran-3% dextrose in isotonic saline in the ratio 0.25 ml dextran solution per 1.0 ml blood. […]

As to `O=C(Nc1ccc(CCc2ccc(Cl)c(Cl)c2)cc1)C(=O)c1sc2ccccc2c1O` [Example 136, Benzo[b]thiophene-2-acetamide, N-[4-[2-(3,4-dichlorophenyl)ethyl]phenyl]-3-hydroxy-α-oxo], the “5LOA, % Inhibition” value is, setting by setting: (2.00 E -5 M) “+2.2%”; (5.00 E -6 M) “+1.4%”.
In the case of `COc1c(C(=O)Nc2ccc(CCc3ccc(Cl)c(Cl)c3)cc2)sc2ccccc12` [Example 147, Benzo[b]thiophene-2-carboxamide, N-[4-[2-(3,4-dichlorophenyl)ethyl]phenyl]-3-methoxy], the “5LOA, % Inhibition” value (2.00 E -5 M) is reported as 13.8% and the “5LOA, % Inhibition” value (5.00 E -6 M) is recorded as 5.5%.
